The values that follow come from patent publication US9181227B2, “Potent and selective inhibitors of hepatitis C virus” (Cocrystal Pharma, Inc., priority 2010, dated 2015).

Like-named read-outs stand apart in the source and are kept apart here. Where only a bound is given, the exact number is not on record here.

What all share (format): cell-based
The subject of one data set is HCV 1b. The data set can be described thus: HCV Replicon Assay. The settings on record: Hepatitis C virus. The procedure:
(§1) Huh 7 Clone B cells containing HCV Replicon RNA would be seeded in a 96-well plate at 5000 cells/well, and the compounds tested at 10 μM in triplicate immediately after seeding. Following five days incubation (37° C., 5% CO2), total cellular RNA was isolated by using versaGene RNA purification kit from Gentra. Replicon RNA and an internal control (TaqMan rRNA control reagents, Applied Biosystems) were amplified in a single step multiplex Real Time RT-PCR Assay. The antiviral effectiveness of the compounds was calculated by subtracting the threshold RT-PCR cycle of the test compound from the threshold RT-PCR cycle of the no-drug control (ΔCt HCV). A ΔCt of 3.3 equals a 1-log reduction (equal to 90% less starting material) in Replicon RNA levels. The cytotoxicity of the compounds was also calculated by using the ΔCt rRNA values. 2′-C-Me-C was used as the positive control. To determine EC90 and IC50 values^2, ΔCt: values were first converted into fraction of starting material^3 and then were used to calculate the % inhibition.
• 1. Stuyver L et al., Ribonucleoside analogue that blocks replication or bovine viral diarrhea and hepatitis C viruses in culture. Antimicrob. Agents Chemother. 2003, 47, 244-254. • 2. Reed I J & Muench H, A simple method or estimating fifty percent endpoints. Am. J. Hyg. 27: 497, 1938. • 3.
A series of additional compounds was evaluated using the methods described herein.

A short description of data set [1]: Cytotoxicity in replicon cells by ΔCt rRNA values. To be noted: human, Huh 7 Clone B cells containing HCV replicon RNA. As to the method: as §1
Data set [2] concerns CEM (human lymphoblastoid) cells. Nature of the data set: Cellular toxicity assay, CEM cells. To be noted: cytotoxicity IC50, CEM cells. As to the method:
(§2) The toxicity of the compounds was assessed in Vero, human PBM, CEM (human lymphoblastoid), MT-2, and HepG2 cells, as described previously (see Schinazi R. F., Sommadossi J.-P., Saalmann V., Cannon D. L., Xie M.-Y., Hart G. C., Smith G. A. & Hahn E. F. Antimicrob. Agents Chemother. 1990, 34, 1061-67). Cycloheximide was included as positive cytotoxic control, and untreated cells exposed to solvent were included as negative controls. The cytotoxicity IC50 was obtained from the concentration-response curve using the median effective method described previously (see Chou T.-C. & Talalay P. Adv. Enzyme Regul. 1984, 22, 27-55; Belen'kii M. S. & Schinazi R. F. Antiviral Res. 1994, 25, 1-11).

A further data set concerns human PBM cells. Nature of the data set: Cellular toxicity assay, PBM cells. To be noted: cytotoxicity IC50, human PBM cells. The procedure:
as §2

The next data set deals with Vero cells. The data set can be described thus: Cellular toxicity assay, Vero cells. The settings on record: cytotoxicity IC50, Vero cells. As to the method:
as §2

Where [3] appears, read: 120 h, Huh 7 Clone B cells containing HCV Replicon RNA, five days incubation, read-out: Replicon EC50 (range against HCV 1b).
The mark [4] stands for this setting: 120 h, Huh 7 Clone B cells containing HCV Replicon RNA, five days incubation, read-out: Replicon activity (Median Effective concentration EC50 range against HCV 1b).
The mark [5] stands for this setting: Huh-7, 120 h, read-out: Replicon EC50 (range against HCV 1b).

As for `COC(=O)N[C@H](C(=O)N1C[C@@H](SC)C[C@H]1c1ncc(-c2ccc(-c3ccc(-c4cnc([C@@H]5C[C@H](SC)CN5C(=O)[C@@H](NC(=O)OC)C(C)C)[nH]4)cc3)cc2)[nH]1)C(C)C`, the EC50 with HCV 1b (setting [3]) was less than 1 nM. For the same compound, in data set [1], the CC50 at 5 days is more than 1000 nM. In addition, the Toxicities CEM in data set [2] worked out at 13.3 µM. In the data set with human PBM cells, this compound displayed a Toxicities PBM of 15.6 µM. In the data set on Vero cells, this compound displayed a Toxicities VERO of 10.9 µM.
For `C#Cc1ccc(-c2cn(-c3ccc(-c4cnc(C5CCCN5C(=O)[C@@H](NC(=O)OC)C(C)C)[nH]4)cc3)nn2)cc1` (stereo partly shown), the EC50 in the data set on HCV 1b (setting [4]) was in the range of 1 to 99 nM.
Turning to `COC(=O)N[C@H](C(=O)N1C[C@H](n2ccnn2)C[C@H]1c1ncc(-c2ccc(-c3ccc(-c4cnc([C@@H]5C[C@@H](n6cc([Si](C)(C)C)nn6)CN5C(=O)[C@@H](NC(=O)OC)C(C)C)[nH]4)cc3)cc2)[nH]1)C(C)C`, the EC50 in the data set on HCV 1b (setting [3]) lay within 1 to 99 nM. For the same compound, in data set [1], the CC50 at 5 days was more than 1000 nM. This compound gave a Toxicities CEM in data set [2] of 16.2 µM. In addition, the Toxicities PBM in the data set on human PBM cells was found to be 3 µM. Further, in the data set on Vero cells, the Toxicities VERO was more than 100 µM.
With `COC(=O)N[C@@H](CC(C)C)C(=O)N1CCC[C@H]1c1ncc(-c2ccc(-c3ccccc3)cc2)[nH]1`, in the data set on HCV 1b (setting [4]), the EC50 fell in the range of 100 to 999 nM.
Take `COC(=O)N[C@H](C(=O)N1C[C@H](n2cc(-c3ccccc3)nn2)C[C@H]1c1ncc(-c2ccc(-c3ccc(-c4cnc([C@@H]5C[C@@H](n6cc(-c7ccccc7)nn6)CN5C(=O)[C@@H](NC(=O)OC)C(C)C)[nH]4)cc3)cc2)[nH]1)C(C)C`: in the data set with HCV 1b (setting [3]), the EC50 lay within 1 to 99 nM. Besides, the CC50 at 5 days in data set [1] was more than 1000 nM. This compound came in with a Toxicities CEM in data set [2] of more than 100 µM. For the same compound, the Toxicities PBM in the data set with human PBM cells was more than 100 µM. In the data set with Vero cells, this compound displayed a Toxicities VERO of more than 100 µM.
Consider `COC(=O)N[C@H](C(=O)N1CCC[C@H]1c1ncc(-c2ccc(-c3ccccc3)cc2)[nH]1)C(C)C` [Methyl ((S)-1-((S)-2-(5-([1,1′-biphenyl]-4-yl)-1H-imidazol-2-yl)pyrrolidin-1-yl)-3-methyl-1-oxobutan-2-yl)carbamate], for which the EC50 with HCV 1b (setting [4]) lay within 100 to 999 nM.
On to `COC(=O)N[C@H](C(=O)N1C[C@@H](n2cc(C(=O)OC)nn2)C[C@H]1c1ncc(-c2ccc(-c3ccc(-c4cnc([C@@H]5C[C@H](n6cc(C(=O)OC)nn6)CN5C(=O)[C@@H](NC(=O)OC)C(C)C)[nH]4)cc3)cc2)[nH]1)C(C)C`, for which, in the data set on HCV 1b (setting [5]), the EC50 is 100 to 999 nM. Moreover, the half-maximal cytotoxic concentration (CC50) at 5 days in data set [1] was more than 1000 nM. In data set [2], this compound came in with a Toxicities CEM of 13.5 µM. Further, in the data set on human PBM cells, the Toxicities PBM turned out to be 53 µM.
In the same order, the values of `COC(=O)N[C@H](C(=O)N1C[C@@H](n2cc(COC(C)=O)nn2)C[C@H]1c1ncc(-c2ccc(-c3ccc(-c4cnc([C@@H]5C[C@H](n6cc(COC(C)=O)nn6)CN5C(=O)[C@@H](NC(=O)OC)C(C)C)[nH]4)cc3)cc2)[nH]1)C(C)C` are 100 to 999 nM, more than 1000 nM, 13.5 µM and 53 µM.
On to `COC(=O)N[C@H](C(=O)N1CCC[C@H]1c1ncc(-c2ccc(N=[N+]=[N-])cc2)[nH]1)C(C)C`, for which the EC50 in the data set on HCV 1b (setting [4]) lay in the range of 1 to 99 nM.
For `COC(=O)N[C@H](C(=O)N1C[C@H](n2cc([Si](C)(C)C)nn2)C[C@H]1c1ncc(-c2ccc(-c3ccc(-c4cnc([C@@H]5C[C@@H](n6cc([Si](C)(C)C)nn6)CN5C(=O)[C@@H](NC(=O)OC)C(C)C)[nH]4)cc3)cc2)[nH]1)C(C)C`, the EC50 with HCV 1b (setting [3]) lay in the range of 1 to 99 nM. In data set [1], this compound came in with a CC50 at 5 days of more than 1000 nM. This compound also displayed a Toxicities CEM in data set [2] of 25.2 µM. In addition, the Toxicities PBM in the data set on human PBM cells is more than 100 µM. Also, the Toxicities VERO in the data set on Vero cells is more than 100 µM.
Regarding `COC(=O)N[C@H](C(=O)N1CCC[C@H]1c1ncc(-c2ccc(-n3cc(-c4cncn4C)nn3)cc2)[nH]1)C(C)C`, the EC50 in the data set with HCV 1b (setting [4]) lay within 100 to 999 nM.
Still for that read-out and setting: the value for `COC(=O)N[C@H](C(=O)N1CCC[C@H]1c1ncc(-c2ccc(-n3cc(-c4ccccc4)nn3)cc2)[nH]1)C(C)C` [Methyl ((S)-3-methyl-1-oxo-1-((S)-2-(5-(4-(4-phenyl-1H-1,2,3-triazol-1-yl)phenyl)-1H-imidazol-2-yl)pyrrolidin-1-yl)butan-2-yl)carbamate] was 100 to 999 nM.

The term CC50 denotes the concentration that lowers cell viability or growth by half. A higher CC50 goes with better tolerance by the cells.
